US6818780B2, “P-hydroxyphenyl propionic acid derivatives as antiproliferative agents” (Consejo Superior de Investigaciones Cientificas, priority 2000, dated 2004)

Experiments:
[1] = tested on: human peripheral blood mononuclear cells (CMSP); assay: Test on lymphocyte proliferation: human peripheral blood mononuclear cells (3H-thymidine incorporation), with or without rhIL-2; format: cell-based; conditions: for Proliferation of human peripheral blood mononuclear cells in the presence of rhIL-2, Con A 2 μg/ml (cpm ± DS) / Proliferation of human peripheral blood mononuclear cells in the presence of rhIL-2, Medium (cpm ± DS) / Proliferation of human peripheral blood mononuclear cells in the presence of rhIL-2, PHA 10 μg/ml (cpm ± DS) / Proliferation of human peripheral blood mononuclear cells in the presence of rhIL-2, aCD3 5 μg/ml (cpm ± DS) / Proliferation of human peripheral blood mononuclear cells in the presence of rhIL-2, aCD3 + Con A (cpm ± DS) / Proliferation of human peripheral blood mononuclear cells in the presence of rhIL-2, aCD3 + PHA (cpm ± DS): rhIL-2 100 UI/ml
Excerpt: Tests on Human Peripheral Blood Mononuclear Cells Material and Methods:
In order to study more deeply the effects of lactone on cell proliferation, we checked whether the effects described in the above section on cells of murine origin were specific to the cell type and the species or whether, on the other hand, these effects were xeno-independent. For this, we purified human peripheral blood mononuclear cells from healthy controls and we proceeded to study the possible effects of inhibition on the proliferative activity of peripheral blood mononuclear cells (CMSP) from humans, induced by different mitogenic agents acting alone and/or in costimulation with other mitogens and in the presence or absence of recombinant human interleukin 2 (rhIL-2).
Mitogens: Phytohaemaglutinin M (PHA) (Difco Lab., Detroit, Mich., USA), Concanavalin A (Con A, 2 μg/ml, Sigma Chemical Co., Mich., USA), Immobilised anti-CD3 (OKT3, 5 μg/ml, Ortho-mune, Orthodiagnostic System) and rhIL-2 (100 IU/ml, Hoffman-La Roche, N.J., USA).
All the reagents included in these tests were diluted in RPMI 1640 culture medium (Whitaker Bioproducts, Walkersville, USA) supplemented with 10% of decomplemented foetal calf serum (Biochrom K G, Berlin), L-glutamin (2 mM, Biochrom K G), Hepes (25 mM, Biochrom K G) and antibiotic (1% penicillin streptomycin, Difco Lab, Detroit, Mich., USA).
Also, all the mitogens were optimised in a dose response way in order to obtaining the maximum proliferative response after 5 days of culture.
Venous blood: The CMSP were obtained from venous blood extracted by antecubital venous puncture. 50 ml of blood were extracted to which were added 50 U of calcic heparin and the mixture was diluted 1/1 (vol/vol) with PSS.
Human mononucleated cells: In order to isolate the CMSP they were proceeded to be separated from the rest of the blood components by means of the formation of a density gradient on Ficoll. The cells thus obtained are resuspended in PSS and centrifuged at 400×g for 10 minutes (washing process) and then resuspended in PSS. This operation is repeated three times. In the last of them, PSS is replaced with complete medium.
(§1) General culture conditions: All cell cultures were developed under conditions of sterility in a vertical laminar flow chamber, using single-use sterile materials or materials sterilised in an autoclave or with ethylene oxide. The cultures were conserved in a stove kept at a temperature of 37° C., in an atmosphere with 5% CO2 and relative humidity of 95%. In the various experiments performed, the purified CMSP cell preparations were incubated in sterile dishes with 96 wells at concentrations of 5×10^4 cells/well (200 μl) in the presence of different concentrations of different mitogens for 5 days.
(§2) The method used for quantifying the cell proliferation was analysis of the incorporation of ^3H-thymidine (^3H-T) into DNA synthesised de novo, detecting the emission of β radiation from the dry extracts of cell cultures to which the tritiated base had been added before its finalisation and collection. The synthesis of DNA was done in triplicate on sterile dishes with 96 flat-bottom wells.
(§3) From 20 to 24 hour prior to terminating the cell culture, 1 μCi of ^3H-T was added to each well containing medium; the cultures were gathered by suction through a glass filter, using a Skatron culture collector for this.
(§4) The synthesis of DNA has been expressed in counts per minute (cpm). Each test was conducted in triplicate, with those data having a variability greater than 10% compared to the mean of the triplicate being rejected, since they could indicate a technical error or contamination in the culture. The cultures were carried out at a constant cell volume per well, as well as at a constant volume of 200 μl.
Negative Control: Cells in the Presence of Complete Culture Medium
Positive Control: Stimulation of Cells without the Presence of Lactone […]

[2] = tested on: human peripheral blood mononuclear cells; assay: Stability studies: antiproliferative activity of lactone kept one year in DMSO, human peripheral blood mononuclear cells; format: cell-based; conditions: for Proliferation of human peripheral blood mononuclear cells, Medium (cpm ± DS) / Proliferation of human peripheral blood mononuclear cells, PHA 10 μg/ml (cpm ± DS) / Proliferation of human peripheral blood mononuclear cells, PHA + rhIL-2 (cpm ± DS): sample kept one year at room temperature at 40.0 mg/ml in DMSO
Method: as §1, §2, §3, §4
The sample remains for one year at room temperature and at a concentration of 40.0 mg/ml in DMSO.

[3] = tested on: murine splenocytes; assay: Test of lymphocyte proliferation: proliferation of murine splenocytes (tritiated thymidine incorporation); format: cell-based, Bal b/c mice; conditions: range 100-0.75 μg/ml
[4] = Lactone 10 μg/ml, no rhIL-2, 5 days
[5] = Lactone 100 μg/ml, no rhIL-2, 5 days

## C=C1C(=O)OC(CCc2ccc(OC)cc2)C1C (stereo not shown) [lactone]
[1]; [4]
  Proliferation of human peripheral blood mononuclear cells, aCD3 + Con A (cpm ± DS): 11 ± 1 cpm
  Proliferation of human peripheral blood mononuclear cells, aCD3 + PHA (cpm ± DS): 23 ± 7 cpm
[1]; Lactone 10 μg/ml, 5 days
  Proliferation of human peripheral blood mononuclear cells in the presence of rhIL-2, Con A 2 μg/ml (cpm ± DS): 611 ± 75 cpm
  Proliferation of human peripheral blood mononuclear cells in the presence of rhIL-2, Medium (cpm ± DS): 866 ± 66 cpm
  Proliferation of human peripheral blood mononuclear cells in the presence of rhIL-2, PHA 10 μg/ml (cpm ± DS): 579 ± 1033 cpm
  Proliferation of human peripheral blood mononuclear cells in the presence of rhIL-2, aCD3 5 μg/ml (cpm ± DS): 489 ± 25 cpm
  Proliferation of human peripheral blood mononuclear cells in the presence of rhIL-2, aCD3 + Con A (cpm ± DS): 164 ± 65 cpm
  Proliferation of human peripheral blood mononuclear cells in the presence of rhIL-2, aCD3 + PHA (cpm ± DS): 304 ± 35 cpm
[1]; [5]
  Proliferation of human peripheral blood mononuclear cells, Con A 2 μg/ml (cpm ± DS): 204 ± 43 cpm
  Proliferation of human peripheral blood mononuclear cells, Medium (cpm ± DS): 104 ± 26 cpm
  Proliferation of human peripheral blood mononuclear cells, PHA 10 μg/ml (cpm ± DS): 1086 ± 308 cpm
  Proliferation of human peripheral blood mononuclear cells, aCD3 5 μg/ml (cpm ± DS): 39 ± 10 cpm
  Proliferation of human peripheral blood mononuclear cells, aCD3 + Con A (cpm ± DS): 8 ± 6 cpm
  Proliferation of human peripheral blood mononuclear cells, aCD3 + PHA (cpm ± DS): 13 ± 4 cpm
[1]; Lactone 100 μg/ml, 5 days
  Proliferation of human peripheral blood mononuclear cells in the presence of rhIL-2, Con A 2 μg/ml (cpm ± DS): 532 ± 109 cpm
  Proliferation of human peripheral blood mononuclear cells in the presence of rhIL-2, Medium (cpm ± DS): 918 ± 1 cpm
  Proliferation of human peripheral blood mononuclear cells in the presence of rhIL-2, PHA 10 μg/ml (cpm ± DS): 892 ± 199 cpm
  Proliferation of human peripheral blood mononuclear cells in the presence of rhIL-2, aCD3 5 μg/ml (cpm ± DS): 400 ± 44 cpm
  Proliferation of human peripheral blood mononuclear cells in the presence of rhIL-2, aCD3 + Con A (cpm ± DS): 237 ± 109 cpm
  Proliferation of human peripheral blood mononuclear cells in the presence of rhIL-2, aCD3 + PHA (cpm ± DS): 286 ± 10 cpm
[1]; induced by Con A+rhIL-2
  Lactone concentration at which the blastogen response induced in CMSP falls by 50%: 0.27 µg/mL
[1]; induced by Concavalin A (Con A)
  Lactone concentration at which the blastogen response induced in CMSP falls by 50%: 0.5 µg/mL
[1]; induced by PHA+rhIL-2
  Lactone concentration at which the blastogen response induced in CMSP falls by 50%: 0.29 µg/mL
[1]; induced by aCD3+Con A
  Lactone concentration at which the blastogen response induced in CMSP falls by 50%: 0.21 µg/mL
[1]; induced by aCD3+PHA
  Lactone concentration at which the blastogen response induced in CMSP falls by 50%: 0.24 µg/mL
[1]; induced by immobilised aCD3+Con A+rhIL-2
  Lactone concentration at which the blastogen response induced in CMSP falls by 50%: 0.25 µg/mL
[1]; induced by immobilised aCD3+PHA+rhIL-2
  Lactone concentration at which the blastogen response induced in CMSP falls by 50%: 0.26 µg/mL
[1]; induced by immobilised aCD3+rhIL-2
  Lactone concentration at which the blastogen response induced in CMSP falls by 50%: 0.24 µg/mL
[1]; induced by immobilised anti-CD3 (aCD3)
  Lactone concentration at which the blastogen response induced in CMSP falls by 50%: 0.06 µg/mL
[1]; induced by phytohaemaglutinin M (PHA)
  Lactone concentration at which the blastogen response induced in CMSP falls by 50%: 0.25 µg/mL
[1]; induced by rhIL-2
  Lactone concentration at which the blastogen response induced in CMSP falls by 50%: 0.26 µg/mL
[1]; no mitogen
  Lactone concentration at which the spontaneous blastogen response of the CMSP falls by 50%: 0.66 µg/mL
[2]; Lactone 0.25 μg/ml
  Proliferation of human peripheral blood mononuclear cells, Medium (cpm ± DS): 283 ± 9 cpm
  Proliferation of human peripheral blood mononuclear cells, PHA 10 μg/ml (cpm ± DS): 60428 ± 5820 cpm
  Proliferation of human peripheral blood mononuclear cells, PHA + rhIL-2 (cpm ± DS): 144693 ± 9470 cpm
[2]; Lactone 100 μg/ml
  Proliferation of human peripheral blood mononuclear cells, Medium (cpm ± DS): 47 ± 5 cpm
  Proliferation of human peripheral blood mononuclear cells, PHA 10 μg/ml (cpm ± DS): 906 ± 251 cpm
  Proliferation of human peripheral blood mononuclear cells, PHA + rhIL-2 (cpm ± DS): 341 ± 21 cpm
[2]; one year at room temperature, 40.0 mg/ml in DMSO, judged by antiproliferative activity
  Stability over time of the product dissolved in dimethylsulphoxide (DMSO): the antiproliferative biological activity of lactone is demonstrated
[3]
  Cytotoxicity effects on murine splenocytes: Nor was are cytotoxicity effects found
